Experimental findings from patent publication US8772499B2, “TRPV3 modulators” (AbbVie Inc., priority 2011, dated 2014) are described below.

By IC50 is commonly meant the concentration that inhibits the measured activity by half.

One series has as its target T1, human TRPV3 (Homo sapiens, UniProt Q8NET8).
T1 construct: expressed in transfected cells
T1 sequence (Q8NET8 1-790): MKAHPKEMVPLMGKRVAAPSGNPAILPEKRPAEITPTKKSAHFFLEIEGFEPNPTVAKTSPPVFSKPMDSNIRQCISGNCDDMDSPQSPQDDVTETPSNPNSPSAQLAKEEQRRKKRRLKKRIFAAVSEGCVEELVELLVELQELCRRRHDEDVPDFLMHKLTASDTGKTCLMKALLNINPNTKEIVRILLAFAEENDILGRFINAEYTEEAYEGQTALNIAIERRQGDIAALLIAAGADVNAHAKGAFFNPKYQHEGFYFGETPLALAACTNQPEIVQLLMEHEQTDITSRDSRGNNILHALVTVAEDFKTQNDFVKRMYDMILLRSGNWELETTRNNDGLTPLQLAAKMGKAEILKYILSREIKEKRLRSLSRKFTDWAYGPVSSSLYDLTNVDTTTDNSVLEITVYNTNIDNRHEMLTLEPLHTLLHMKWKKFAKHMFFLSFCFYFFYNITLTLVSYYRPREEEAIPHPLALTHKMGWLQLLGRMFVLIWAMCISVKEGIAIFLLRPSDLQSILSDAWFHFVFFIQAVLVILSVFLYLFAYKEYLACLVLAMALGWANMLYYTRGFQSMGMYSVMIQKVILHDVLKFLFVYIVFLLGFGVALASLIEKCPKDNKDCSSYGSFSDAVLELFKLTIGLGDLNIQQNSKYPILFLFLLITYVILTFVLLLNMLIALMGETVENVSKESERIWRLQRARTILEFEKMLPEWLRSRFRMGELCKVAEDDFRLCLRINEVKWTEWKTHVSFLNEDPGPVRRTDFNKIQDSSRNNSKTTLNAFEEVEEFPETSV
The series can be described thus: In vitro antagonism of recombinant human TRPV3 activation (FLIPR Tetra calcium assay). The format is cell-based. The following applies: HEK293 cells stably expressing human TRPV3, agonist 2-APB at 80 μM. As to the method:
Test compounds were evaluated for ability to antagonize the activation of recombinant human TRPV3 using FLIPR® Tetra cellular screening. Specifically, on the day prior to the experiment recombinant HEK293 cells that stably express human TRPV3 were removed from tissue culture flasks and plated in growth medium at 20,000 cells/well into Poly-d-lysine coated black/clear 384-well Plate (Corning, 3845) using a Multidrop® dispenser (ThermoScientific, Waltham, Mass.). Prior to the start of the assay, the medium was removed by aspiration, and cells were loaded with 30 μL no-wash FLIPR® Calcium-4 dye (λEX=470-495 nm, λEM=515-575 nm; Molecular Devices, Sunnyvale, Calif.). The cells were then incubated for 90-120 minutes in the dark prior to addition of the test compound.
A double-addition protocol was used. The test compound (i.e., the TRPV3 antagonist) was added at the 10 second time point, followed by the addition of a TRPV3 agonist three minutes later. Each test compound evaluated was first dissolved in DMSO to prepare a 10 mM stock solution. A solution (5×) of the test compound was then prepared in DPBS (Dulbecco's Phosphate Buffered Saline) and 10 μl, of that solution was added to the cells at a delivery rate of 40 μL/sec. The TRPV3 agonist used to activate human TRPV3 expressed by the […] was 2-aminoethoxy-diphenyl borate (2-APB; Tocris Cookson, Ellisville, Mo.) at 80 μM. Final assay volume was 50 μl, Total length of an experimental run was 10 minutes.
Changes in fluorescence were measured over time using the FLIPR® instrument. The intensity of the fluorescence was captured and digitally transferred to an interfaced computer. The maximum response minus minimum response was calculated and expressed as the percentage of the maximum 2-APB response in the absence of antagonist. The concentration of 2-APB corresponds to its EC80.
Table 1 reports the IC50 values measured for the test compounds as human TRPV3 antagonists. […] Actual measured values are shown parenthetically after the reported range. In most cases, the values reported are average values from at least two runs (i.e., n≧2).

The nature of series [1]: In vitro human microsomal stability assay. The format is in vitro ADME. The settings on record: for HUMAN MICROSOMAL STABILITY (% REMAINING AFTER 30 MINUTES): microsomes, 0.5 h, 0.5 μM, pH 7.4. The procedure:
(§1) Test compounds were evaluated for metabolic stability in an in vitro rat microsomal stability assay using rat liver microsomes (Sprague-Dawley, from BD Biosciences) and/or an in vitro human microsomal stability assay using human liver microsomes (Xenotech). […] Incubations were carried out at 37° C. with a final incubation volume of 135 μL. […] A 1.5 μL aliquot of reduced nicotine adenine disphosphonucleotide (NADPH) (Chem-Impex Int'L Inc., Lot 12532024) was also added to the time-zero plates.

Series [2] in a line: In vitro rat microsomal stability assay. The format is in vitro ADME, rat (Sprague-Dawley). The following applies: for RAT MICROSOMAL STABILITY (% REMAINING AFTER 30 MINUTES): Sprague-Dawley, microsomes, 0.5 h, 0.5 μM, pH 7.4. The procedure: as §1
[3] abbreviates: actual measured value shown parenthetically, in most cases average of at least two runs, read-out: IC50.
Setting [4] is: reported range, read-out: IC50 (range class).

Molecules are shown by their SMILES. Where two headings read alike, the source gives them in different places.

With `COC1CC(c2ccc(Cl)c(Cl)c2)([C@H](O)c2ccccn2)C1` (mixture of isomers) [Example 151, (S)-[1-(3,4-dichlorophenyl)-3-methoxycyclobutyl](pyridin-2-yl)methanol], the IC50 at human TRPV3 (setting [3]) was 1.24 µM. For the same compound, the “HUMAN MICROSOMAL STABILITY (% REMAINING AFTER 30 MINUTES)” value in series [1] is listed as 32%. Further, the “RAT MICROSOMAL STABILITY (% REMAINING AFTER 30 MINUTES)” value in series [2] was less than 0.01%.
The corresponding values for `OC1CC(c2ccc(C(F)(F)F)cc2)([C@H](O)c2ccccn2)C1` (mixture of isomers) [Example 166, 3-[(S)-hydroxy(pyridin-2-yl)methyl]-3-[4-(trifluoromethyl)phenyl]-cyclobutanol] are 5.94 µM, more than 85% and more than 85%.
In the case of `OC(c1ccccn1)C1(C2=CCCOC2)CCC1` (single isomer, unassigned) [Example 269, [1-(5,6-dihydro-2H-pyran-3-yl)cyclobutyl](pyridin-2-yl)methanol], the “HUMAN MICROSOMAL STABILITY (% REMAINING AFTER 30 MINUTES)” value in series [1] came to 40%. In addition, the “RAT MICROSOMAL STABILITY (% REMAINING AFTER 30 MINUTES)” value in series [2] was found to be 12%.
The corresponding values for `OC(c1ccccn1)C1(C2=COCCC2)CCC1` (single isomer, unassigned) [Example 270, [1-(3,4-dihydro-2H-pyran-5-yl)cyclobutyl](pyridine-2-yl)methanol] are 17% and 0.48%.
In the case of `CC1(O)CC(c2cncc(C(F)(F)F)c2)(C(O)c2ccccn2)C1` (single isomer, unassigned) [Example 309], the IC50 at human TRPV3 (setting [3]) was determined as 3.05 µM. Besides, the “HUMAN MICROSOMAL STABILITY (% REMAINING AFTER 30 MINUTES)” value in series [1] is more than 85%.
In the case of `CCN(CC)c1ccc(C2(C(O)c3ccccn3)CCC2)cc1` (stereo not shown) [Example 18, {1-[4-(diethylamino)phenyl]cyclobutyl}(pyridin-2-yl)methanol], the IC50 on human TRPV3 (setting [3]) worked out at 0.74 µM. Also, in series [2], the “RAT MICROSOMAL STABILITY (% REMAINING AFTER 30 MINUTES)” value stood at 0.27%.
On the same counts, the results for `OC(c1ncccn1)C1(c2cccc(OC(F)(F)F)c2)CCC1` (stereo not shown) [Example 37, pyrimidin-2-yl{1-[3-(trifluoromethoxy)phenyl]cyclobutyl}methanol] are 0.83 µM and 7.7%.
The corresponding values for `OC(c1ncccn1)C1(c2ccc(Cl)c(Cl)c2)CCC1` (stereo not shown) [Example 38, [1-(3,4-dichlorophenyl)cyclobutyl] (pyrimidin-2-yl)methanol] are 0.06 µM and 9.5%.
For the compound `CC(c1cccc(C(F)(F)F)c1)C1(C(O)c2ccccn2)CCC1` (stereo not shown) [Example 54, pyridin-2-yl(1-{1-[3-(trifluoromethyl)phenyl]ethyl}cyclobutyl)methanol], the IC50 on human TRPV3 (setting [3]) was 22 µM. Besides, the “RAT MICROSOMAL STABILITY (% REMAINING AFTER 30 MINUTES)” value in series [2] was found to be 0.21%.
For the compound `OC(C1CCc2cccnc21)C1(c2ccccc2OC(F)(F)F)CCC1` (stereo not drawn) [Example 193, (anti)-6,7-dihydro-5H-cyclopenta[b]pyridin-7-yl{1-[2-(trifluoromethoxy)-phenyl]cyclobutyl}methanol], the “HUMAN […] (% REMAINING AFTER 30 MINUTES)” value in series [1] (human liver microsomes, 0.5 μM substrate, 0.25 mg/mL microsomal protein, pH 7.4, 37° C., NADPH, 30 minutes) is on record as 0.02%. In series [2] (rat liver microsomes (Sprague-Dawley), 0.5 μM substrate, 0.25 mg/mL microsomal protein, pH 7.4, 37° C., NADPH, 30 minutes), the “RAT […] (% REMAINING AFTER 30 MINUTES)” value is reported as less than 0.01%.
In the case of `OC(C1CCCc2cccnc21)C1(c2ccccc2C(F)(F)F)CCC1` (stereo not drawn) [Example 196, (syn)-5,6,7,8-tetrahydroquinolin-8-yl{1-[2-(trifluoromethyl)phenyl]-cyclobutyl}methanol], the IC50 at human TRPV3 (setting [3]) and at human TRPV3 (setting [4]) was more than 20 µM each time.
In the case of `NC1CCCCC1C(O)C1(c2ccc(C(F)(F)F)cc2)CCC1` (stereo not shown) [Example 207, (2-aminocyclohexyl) {1-[4-(trifluoromethyl)phenyl]cyclobutyl}methanol], on human TRPV3 (setting [3]), the IC50 amounted to 3.99 µM.
In the case of `NC1CCCC1C(O)C1(c2cccc(OC(F)(F)F)c2)CCC1` (stereo not shown) [Example 208, (2-aminocyclopentyl) {1-[3-(trifluoromethoxy)phenyl]cyclobutyl}methanol], on human TRPV3 (setting [3]), the IC50 turned out to be 2.06 µM. For the same compound, the “RAT MICROSOMAL STABILITY (% REMAINING AFTER 30 MINUTES)” value in series [2] was 36%.
Consider `NC1CCCCC1C(O)C1(c2ccc(OC(F)(F)F)cc2)CCC1` (stereo not shown) [Example 209, (2-aminocyclohexyl) {1-[4-(trifluoromethoxy)phenyl]cyclobutyl}methanol], for which, at human TRPV3 (setting [3]), the IC50 worked out at 4.6 µM.
On the same count and under the same terms, to `NC1CCCCC1C(O)C1(c2cccc(OC(F)(F)F)c2)CCC1` (stereo not shown) [Example 210, (2-aminocyclohexyl) {1-[3-(trifluoromethoxy)phenyl]cyclobutyl}methanol] belongs 3.31 µM; to `NC1CCCCC1C(O)C1(c2ccc(Cl)c(Cl)c2)CCC1` (stereo not shown) [Example 211, (2-aminocyclohexyl)[1-(3,4-dichlorophenyl)cyclobutyl]methanol], 6.17 µM.
Same read-out and setting: the same measure for `NC1CCCC1C(O)C1(c2ccccc2OC(F)(F)F)CCC1` (stereo not shown) [Example 214, (2-aminocyclopentyl) {1-[2-(trifluoromethoxy)phenyl]cyclobutyl}methanol]: 1.22 µM.
With `NC1CCCC1C(O)C1(c2ccc(Cl)c(Cl)c2)CCC1` (stereo not shown) [Example 215, (2-aminocyclopentyl)[1-(3,4-dichlorophenyl)cyclobutyl]methanol], the IC50 on human TRPV3 (setting [3]) turned out to be 0.77 µM.
Same read-out and setting: to `N[C@H]1CCC[C@H]1[C@@H](O)C1(c2ccc(Cl)c(Cl)c2)CCC1` [Example 218, (R)-[(1R,2S)-2-aminocyclopentyl][1-(3,4-dichlorophenyl)cyclobutyl]-methanol] belongs 1.73 µM.
The same measure, in the same setting: the same measure for `N[C@H]1CCC[C@@H]1[C@H](O)C1(c2ccc(Cl)c(Cl)c2)CCC1` [Example 219, (S)-[(1S,2S)-2-aminocyclopentyl][1-(3,4-dichlorophenyl)cyclobutyl]-methanol]: 3.07 µM.
For the compound `OC(c1ccccn1)C1(C2CCOCC2)CCC1` (stereo not shown) [Example 239, pyridin-2-yl[1-(tetrahydro-2H-pyran-4-yl)cyclobutyl]methanol], the “HUMAN MICROSOMAL STABILITY (% REMAINING AFTER 30 MINUTES)” value in series [1] amounted to 57%. Moreover, the “RAT MICROSOMAL STABILITY (% REMAINING AFTER 30 MINUTES)” value in series [2] came out at 0.072%.
`OC(c1ccccn1)C1(C2=CCOCC2)CCC1` (stereo not shown) [Example 252, [1-(3,6-dihydro-2H-pyran-4-yl)cyclobutyl](pyridin-2-yl)methanol]: the half-maximal inhibitory concentration (IC50) at human TRPV3 (setting [3]) and on human TRPV3 (setting [4]) was more than 20 µM in each case.
Turning to `CC1(O)CC(c2cccc(OC(F)(F)F)c2)(C(O)c2ccccn2)C1` [Example 263, trans-3-[(S)-hydroxy(pyridin-2-yl)methyl]-1-methyl-3-[3-(trifluoromethoxy)phenyl]cyclobutanol], the IC50 on human TRPV3 (setting [3]) worked out at 2.8 µM. Further, the “RAT MICROSOMAL STABILITY (% REMAINING AFTER 30 MINUTES)” value in series [2] is more than 85%.
Turning to `CC1(O)CC(c2ccc(OC(F)(F)F)cc2)(C(O)c2ncccn2)C1` [Example 311, (trans)-3-((R)-hydroxy(pyrimidin-2-yl)methyl)-1-methyl-3-(4-(trifluoromethoxy)phenyl)cyclobutanol], the IC50 at human TRPV3 (setting [3]) and at human TRPV3 (setting [4]) was more than 20 µM each time. Further, the “RAT MICROSOMAL STABILITY (% REMAINING AFTER 30 MINUTES)” value in series [2] is listed as more than 85%.
